Several values for one entry are separate records, joined by “and”; a condition that tells them apart may be missing. Identical values can stand only once.
Columns and labels:
[1] = target: T1, SMARCA2/4 (Homo sapiens, UniProt P51531); assay: SMARCA2/4 half-life (cycloheximide) and re-synthesis after compound 6 and VHL binder in HCT116 and RKO; assay type: cell-based; conditions: for K (one phase exponential decay) / Tau (one phase exponential decay): CHX
T1 construct: endogenous in cells; host or cells: HCT116, RKO
T1 sequence (P51531 whole entry): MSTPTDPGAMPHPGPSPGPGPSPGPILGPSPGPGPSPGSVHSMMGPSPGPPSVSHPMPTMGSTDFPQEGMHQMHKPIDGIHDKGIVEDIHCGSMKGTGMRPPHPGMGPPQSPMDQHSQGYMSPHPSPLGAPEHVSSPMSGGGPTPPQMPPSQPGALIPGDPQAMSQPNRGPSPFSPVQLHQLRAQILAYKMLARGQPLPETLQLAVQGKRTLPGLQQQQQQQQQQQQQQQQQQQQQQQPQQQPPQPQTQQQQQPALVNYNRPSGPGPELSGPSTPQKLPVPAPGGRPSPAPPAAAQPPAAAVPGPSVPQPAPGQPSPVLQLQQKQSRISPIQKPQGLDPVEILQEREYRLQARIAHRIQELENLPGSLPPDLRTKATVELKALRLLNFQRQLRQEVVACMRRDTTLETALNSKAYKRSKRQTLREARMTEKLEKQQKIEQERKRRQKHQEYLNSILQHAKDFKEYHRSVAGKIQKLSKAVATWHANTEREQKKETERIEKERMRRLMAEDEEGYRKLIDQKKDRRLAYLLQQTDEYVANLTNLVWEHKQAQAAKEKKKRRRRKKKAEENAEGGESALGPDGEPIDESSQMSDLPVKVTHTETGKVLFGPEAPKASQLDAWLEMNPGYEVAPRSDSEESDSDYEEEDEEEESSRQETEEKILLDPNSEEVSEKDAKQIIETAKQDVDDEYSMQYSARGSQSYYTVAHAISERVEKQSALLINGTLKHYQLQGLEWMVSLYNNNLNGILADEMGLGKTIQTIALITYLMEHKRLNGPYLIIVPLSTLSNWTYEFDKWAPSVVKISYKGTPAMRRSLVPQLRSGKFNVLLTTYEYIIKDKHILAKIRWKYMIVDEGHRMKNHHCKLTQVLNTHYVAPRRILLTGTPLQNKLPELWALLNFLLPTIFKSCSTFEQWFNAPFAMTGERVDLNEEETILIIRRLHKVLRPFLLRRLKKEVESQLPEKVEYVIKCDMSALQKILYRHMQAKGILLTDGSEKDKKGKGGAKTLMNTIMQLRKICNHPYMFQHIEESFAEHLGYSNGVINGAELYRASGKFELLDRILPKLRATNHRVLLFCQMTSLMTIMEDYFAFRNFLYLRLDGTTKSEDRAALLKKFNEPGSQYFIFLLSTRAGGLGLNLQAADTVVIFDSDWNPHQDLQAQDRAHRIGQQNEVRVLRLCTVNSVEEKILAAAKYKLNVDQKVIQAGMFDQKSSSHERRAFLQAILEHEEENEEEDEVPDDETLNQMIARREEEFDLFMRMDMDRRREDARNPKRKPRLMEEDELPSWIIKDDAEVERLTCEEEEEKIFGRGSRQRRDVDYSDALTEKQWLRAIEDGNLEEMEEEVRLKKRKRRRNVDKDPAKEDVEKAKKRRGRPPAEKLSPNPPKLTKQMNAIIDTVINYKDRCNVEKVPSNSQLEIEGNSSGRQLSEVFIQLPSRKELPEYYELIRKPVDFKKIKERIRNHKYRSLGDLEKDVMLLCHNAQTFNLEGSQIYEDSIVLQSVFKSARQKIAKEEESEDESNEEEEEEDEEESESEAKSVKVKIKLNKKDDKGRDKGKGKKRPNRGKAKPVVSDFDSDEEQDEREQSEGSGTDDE
Description: (§1) 130,000–200,000 cells were seeded in 24-well plates and incubated until settled down or overnight. Compounds were dissolved in DMSO and added to cells in indicated concentrations using a digital dispenser following an optional media change. […] For SMARCA2/4 half-life determination, 150,000 or 200,000 cells were seeded in 24-well plates. […] For SMARCA2/4 re-synthesis measurements, 200,000 cells were seeded in 24-well plates. The next day, 100 nM compound 6 was added for 4 h to degrade SMARCA2/4, and a sample was taken as baseline for normalisation. […] Medium was removed, cells were washed with PBS and lysed with 80 µl Lysis Buffer (MSD Tris Lysis Buffer (#R60TX-2) + Halt Inhibitor Cocktail (100x) + Benzonase 0.5 µL/ml). Samples were frozen at −80 °C and thawed at room temperature before use. Samples were transferred to a V-bottom plate and insoluble debris was pelleted by centrifugation for 5 min at maximum speed. The supernatant was transferred to a fresh plate. Master Mix and Ladder were prepared according to manufacturer’s instructions for 12–230 kDa Wes Separation Module, 8 × 25 capillary cartridges, Protein Simple #SM-W004 with Anti-Rabbit Detection Module for Wes, Peggy Sue or Sally Sue, Protein Simple #DM-001. 4.8 µl lysate were mixed with 1.2 µl Master Mix to achieve a protein concentration of ~0.5 µg/µl. Antibodies were diluted in Antibody Diluent II (SMARCA2 Sigma #HPA029981 RRID:AB_10602406 1:25–100, SMARCA4 Cell Signalling #49360 clone D1Q7F RRID:AB_2728743 1:15–120 or Abcam #ab110641 clone EPNCIR111A RRID:AB_10861578 1:60, GAPDH Abcam #ab9485 RRID:AB_307275 1:250). Wes plates were prepared and run according to manufacturer’s instructions. Proteins were quantified with accompanying Compass Software. SMARCA2/4 protein levels were normalised to GAPDH. […] Where applicable, curves were fitted using a 4-parametric logistic model.

[2] = target: T2, SMARCA2/4 (Homo sapiens, UniProt P51532); assay: as above; assay type: cell-based; conditions: for K (one phase exponential decay) / Tau (one phase exponential decay): CHX
T2 construct: endogenous in cells; host or cells: HCT116, RKO
T2 sequence (P51532 whole entry): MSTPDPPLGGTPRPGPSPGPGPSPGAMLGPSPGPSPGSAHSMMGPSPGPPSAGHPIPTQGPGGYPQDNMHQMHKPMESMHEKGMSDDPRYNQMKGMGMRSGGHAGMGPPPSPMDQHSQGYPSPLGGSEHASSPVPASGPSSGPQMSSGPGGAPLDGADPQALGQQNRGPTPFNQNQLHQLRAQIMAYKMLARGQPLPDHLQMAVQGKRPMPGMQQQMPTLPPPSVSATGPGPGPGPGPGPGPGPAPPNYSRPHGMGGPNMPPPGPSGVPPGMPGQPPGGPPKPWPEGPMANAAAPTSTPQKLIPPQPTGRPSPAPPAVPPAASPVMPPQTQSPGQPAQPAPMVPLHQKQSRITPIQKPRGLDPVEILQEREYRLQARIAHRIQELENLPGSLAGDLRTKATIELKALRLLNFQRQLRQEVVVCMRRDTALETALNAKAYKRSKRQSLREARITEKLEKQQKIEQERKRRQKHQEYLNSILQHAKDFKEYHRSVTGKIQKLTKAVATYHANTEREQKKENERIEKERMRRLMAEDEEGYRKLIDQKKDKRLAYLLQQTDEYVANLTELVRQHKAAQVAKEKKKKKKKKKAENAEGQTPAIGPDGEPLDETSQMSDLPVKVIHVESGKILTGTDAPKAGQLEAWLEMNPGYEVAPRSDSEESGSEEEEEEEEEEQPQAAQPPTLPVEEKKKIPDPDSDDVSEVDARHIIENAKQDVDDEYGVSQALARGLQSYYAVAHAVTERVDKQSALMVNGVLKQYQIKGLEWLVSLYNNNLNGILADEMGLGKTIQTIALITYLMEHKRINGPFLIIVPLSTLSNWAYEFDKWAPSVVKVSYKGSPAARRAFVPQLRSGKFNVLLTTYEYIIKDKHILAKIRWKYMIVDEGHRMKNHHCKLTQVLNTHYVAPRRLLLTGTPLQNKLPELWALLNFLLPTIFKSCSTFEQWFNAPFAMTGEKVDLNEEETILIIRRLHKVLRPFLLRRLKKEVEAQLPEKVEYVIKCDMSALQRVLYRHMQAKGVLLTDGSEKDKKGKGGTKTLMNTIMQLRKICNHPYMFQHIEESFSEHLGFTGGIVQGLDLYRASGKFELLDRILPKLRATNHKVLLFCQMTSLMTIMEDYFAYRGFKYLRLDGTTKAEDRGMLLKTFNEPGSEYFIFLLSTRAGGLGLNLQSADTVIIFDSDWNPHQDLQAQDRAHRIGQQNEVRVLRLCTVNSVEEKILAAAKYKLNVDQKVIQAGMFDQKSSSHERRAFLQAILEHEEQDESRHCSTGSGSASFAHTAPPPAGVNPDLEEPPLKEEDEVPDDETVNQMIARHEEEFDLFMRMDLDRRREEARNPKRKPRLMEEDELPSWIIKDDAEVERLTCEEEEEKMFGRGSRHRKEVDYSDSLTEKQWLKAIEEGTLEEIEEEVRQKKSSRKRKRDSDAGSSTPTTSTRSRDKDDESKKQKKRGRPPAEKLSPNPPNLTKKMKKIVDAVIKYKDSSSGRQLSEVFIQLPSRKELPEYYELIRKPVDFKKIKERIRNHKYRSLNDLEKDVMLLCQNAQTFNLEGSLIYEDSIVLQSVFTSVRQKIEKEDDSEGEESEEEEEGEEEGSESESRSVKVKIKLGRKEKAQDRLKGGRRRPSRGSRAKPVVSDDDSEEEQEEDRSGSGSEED
Description: as §1

For `C[C@@H]1C[C@@H]([C@H](O)CC2CC(=O)NC(=O)C2)C(=O)[C@@H](C)C1` [CHX], the “K (one phase exponential decay)” value ([1]; HCT116, SM2) was 0.01756, the “Tau (one phase exponential decay)” value ([1]; HCT116, SM2) was 56.94 h and the fraction protein remaining ([1]; HCT116, SM2, Time CHX 1 h) was 0.9134 and 0.9119 and 0.8363. For the same compound, the fraction protein remaining ([1]; HCT116, SM2, Time CHX 2 h) was 1.19 and 0.984 and 1.003, the fraction protein remaining ([1]; HCT116, SM2, Time CHX 6 h) was 1.2436 and 0.9973 and 0.8745 and the fraction protein remaining ([1]; HCT116, SM2, Time CHX 18 h) was 0.8497 and 0.6816 and 0.6174. The fraction protein remaining ([1]; HCT116, SM2, Time CHX 20 h) was 0.8836 and 0.7383 and 0.515, the “K (one phase exponential decay)” value ([1]; RKO, SM2) was 0.03021 and the “Tau (one phase exponential decay)” value ([1]; RKO, SM2) was 33.1 h. The fraction protein remaining ([1]; RKO, SM2, Time CHX 1 h) was 0.6694 and 0.8157 and 0.6659, the fraction protein remaining ([1]; RKO, SM2, Time CHX 2 h) was 0.8737 and 0.9723 and 0.8342 and the fraction protein remaining ([1]; RKO, SM2, Time CHX 6 h) was 0.9472 and 0.9944 and 0.8492. For the same compound, the fraction protein remaining ([1]; RKO, SM2, Time CHX 18 h) was 0.7207 and 0.4914 and 0.6074, the fraction protein remaining ([1]; RKO, SM2, Time CHX 20 h) was 0.6704 and 0.4369 and 0.5438 and the “K (one phase exponential decay)” value ([2]; HCT116, SM4) was 0.01934. For the same compound, the “Tau (one phase exponential decay)” value ([2]; HCT116, SM4) was 51.7 h, the fraction protein remaining ([2]; HCT116, SM4, Time CHX 1 h) was 0.9048 and 0.6354 and 0.681 and the fraction protein remaining ([2]; HCT116, SM4, Time CHX 2 h) was 1.063 and 0.7806 and 0.7981. The fraction protein remaining ([2]; HCT116, SM4, Time CHX 6 h) was 0.982 and 0.7891 and 0.769, the fraction protein remaining ([2]; HCT116, SM4, Time CHX 18 h) was 0.6017 and 0.6088 and 0.5084 and the fraction protein remaining ([2]; HCT116, SM4, Time CHX 20 h) was 0.6375 and 0.6135 and 0.453. For the same compound, the fraction protein remaining ([2]; HCT116, SM4, Time CHX 24 h) was 0.6439 and 0.582 and 0.7075, the “K (one phase exponential decay)” value ([2]; RKO, SM4) was 0.05848 and the “Tau (one phase exponential decay)” value ([2]; RKO, SM4) was 17.1 h. The fraction protein remaining ([2]; RKO, SM4, Time CHX 1 h) was 0.6419 and 0.7642 and 0.7888, the fraction protein remaining ([2]; RKO, SM4, Time CHX 2 h) was 0.6538 and 0.6196 and 0.6177 and the fraction protein remaining ([2]; RKO, SM4, Time CHX 6 h) was 0.4106 and 0.4086 and 0.4599. For the same compound, the fraction protein remaining ([2]; RKO, SM4, Time CHX 18 h) was 0.3137 and 0.4693 and 0.3349, the fraction protein remaining ([2]; RKO, SM4, Time CHX 20 h) was 0.3111 and 0.4007 and 0.3018 and the fraction protein remaining ([2]; RKO, SM4, Time CHX 24 h) was 0.1564 and 0.2093 and 0.1216.
